Assay results as given in patent publication US20100233093A1, “Magnetic resonance imaging contrast agent with paramagnetic-inositol phosphates complexes” (GACHON UNIVERSITY OF MEDICINE & SCIENCE INDUSTRY-ACADEMIC …, priority 2009, published 2010).
“And” between values parts separate entries of the source, which are not always exact repeats. Identical values can stand only once.

Assays:
[1] = ITC analysis of Ca^2+ binding to phytate; details: Ca^2+ stronger than Mg^2+
[2] = ITC analysis of Gd^3+ binding to EDTA; details: higher affinity than EDTA
[3] = Stability constant (K) from thermodynamic parameters of ITC analysis; assay type: physicochemical; details: calculated from ΔG of ITC analysis
Text: A stability constant (formation constant, binding constant) is an equilibrium constant for the formation of a complex in solution. It is a measure of the strength of the interaction between the reagents that come together to form the complex. The thermodynamics of metal ion complex formation provides much significant information. The chelate effect, below, is best explained in terms of thermodynamics. An equilibrium constant is related to the standard Gibbs free energy change for the reaction.

binding affinity for Ca^2+ relative to Mg^2+ [1] [fold]	affinity for Gd^3+ relative to EDTA [2]	Structure (SMILES)	Stability Constant (K) [3] [M⁻¹]
100	10 fold and 10- to 100 fold	O=P(O)(O)OC1C(OP(=O)(O)O)C(OP(=O)(O)O)C(OP(=O)(O)O)C(OP(=O)(O)O)C1OP(=O)(O)O (centres unmarked) [phytate]	–
–	–	O=C([O-])CN1CCN(CC(=O)[O-])CCN(CC(=O)O)CCN(CC(=O)[O-])CC1.[Gd+3] [Gd-DOTA]	1.3e+29
–	–	O=C([O-])CN(CCN(CC(=O)[O-])CC(=O)O)CCN(CC(=O)[O-])CC(=O)O.[Gd+3] [Gd-DTPA]	1.2e+28
–	–	O=C([O-])CN(CCN(CC(=O)[O-])CC(=O)[O-])CC(=O)[O-].[Gd+3] [Gd-EDTA]	4.4e+29
